Counter-ions that a name gives are not always drawn.
Tests used:
[1] = tested on: Tyk2 kinase activity on STAT4; experiment: pSTAT4 cell assay (MSD, NK92 cells); type: cell-based; details: compounds 1 hr, stimulated 15 minutes
Procedure, shortened: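 Read-out: phospho-STAT in NK92 lysates, MSD format, anti-STAT4 antibodies. Cells were serum-starved, given compound for 1 hr (10 μM top, four-fold, 10 points) and IL2-stimulated (30 ng/mL, 15 min). Normalized percent activity vs log concentration, 4-parameter logistic fit gave IC50.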

JH2 domain of human Tyk2 = target: T1, JH2 domain of human Tyk2 (Homo sapiens, UniProt P29597); experiment: JH2 biochemical assay (TR-FRET probe displacement); type: binding; details: JH2 biochemical assay
T1 construct: 10×His-tagged TYK2 JH2 domain (amino acid 575-876)
Procedure, shortened: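 A probe-displacement TR-FRET readout: compounds, tested in 3-fold, 10-point dilutions starting at […], compete with 2 nM tracer for 2 nM His-tagged JH2 (residues 575-876) detected by 0.1 nM Tb-anti-His over 60 min. IC50 comes from 4-parameter fits of normalized 520/495 nm ratios.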

T1 sequence (P29597 575-876): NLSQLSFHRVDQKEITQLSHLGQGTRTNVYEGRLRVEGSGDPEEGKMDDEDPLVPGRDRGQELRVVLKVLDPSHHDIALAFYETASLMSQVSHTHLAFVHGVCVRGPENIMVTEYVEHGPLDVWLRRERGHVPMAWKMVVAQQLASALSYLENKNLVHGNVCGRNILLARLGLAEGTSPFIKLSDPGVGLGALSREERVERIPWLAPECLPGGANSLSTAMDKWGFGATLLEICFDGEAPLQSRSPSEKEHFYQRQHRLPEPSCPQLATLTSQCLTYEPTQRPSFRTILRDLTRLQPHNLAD

Compound	IC50 [1] [µM]	IC50 (JH2 domain of human Tyk2) [µM]
CC(=O)Nc1cc2c(cn1)C1(CC1)CN2c1cc(CN2CCC2)nc(C(C)(F)F)n1 [Example 299, N-(1′-(6-(azetidin-1-ylmethyl)-2-(1,1-difluoroethyl)pyrimidin-4-yl)-1′,2′-dihydrospiro[cyclopropane-1,3′-pyrrolo[3,2-c]pyridin]-6′-yl)acetamide]	0.1 to 1	0.01 to 0.1
CC(=O)Nc1cc2c(cn1)C1(CC1)CN2c1cc(-c2ncn(C)n2)nc(C(C)(F)F)n1 [Example 300, N-(1′-(2-(1,1-difluoroethyl)-6-(1-methyl-1H-1,2,4-triazol-3-yl)pyrimidin-4-yl)-1′,2′-dihydrospiro[cyclopropane-1,3′-pyrrolo[3,2-c]pyridin]-6′-yl)acetamide]	0.1 to 1	≤ 0.01
CCn1ncc(-c2cc(N3CC4(CC4)c4cnc(NC(C)=O)cc43)nc(C(C)(F)F)n2)c1F [Example 301, N-(1′-(2-(1,1-difluoroethyl)-6-(1-ethyl-5-fluoro-1H-pyrazol-4-yl)pyrimidin-4-yl)-1′,2′-dihydrospiro[cyclopropane-1,3′-pyrrolo[3,2-c]pyridin]-6′-yl)acetamide]	0.01 to 0.1	≤ 0.01
CC(=O)Nc1cc2c(cn1)C1(CC1)CN2c1cc(CC#N)nc(C(C)(F)F)n1 [Example 303, N-(1′-(6-(cyanomethyl)-2-(1,1-difluoroethyl)pyrimidin-4-yl)-1′,2′-dihydrospiro[cyclopropane-1,3′-pyrrolo[3,2-c]pyridin]-6′-yl)acetamide]	≥ 1	0.01 to 0.1
CCC(F)(F)c1nc(C)cc(N2CC3(CC3)c3cnc(NC(C)=O)cc32)n1 [Example 304, N-(1′-(2-(1,1-difluoropropyl)-6-methylpyrimidin-4-yl)-1′,2′-dihydrospiro[cyclopropane-1,3′-pyrrolo[3,2-c]pyridin]-6′-yl)acetamide trifluoroacetate]	0.01 to 0.1	≤ 0.01
CC(=O)Nc1cc2c(cn1)C1(CC1)CN2c1cc(F)nc(C(C)(F)F)n1 [Example 305, N-(1′-(2-(1,1-difluoroethyl)-6-fluoropyrimidin-4-yl)-1′,2′-dihydrospiro[cyclopropane-1,3′-pyrrolo[3,2-c]pyridin]-6′-yl)acetamide trifluoroacetate]	0.1 to 1	0.01 to 0.1
CC(=O)Nc1cc2c(cn1)C1(CC1)CN2c1cc(C)cc(C23COC(C)(C2)C3)n1 [Example 306, N-(1′-(4-methyl-6-(1-methyl-2-oxabicyclo[2.1.1]hexan-4-yl)pyridin-2-yl)-1′,2′-dihydrospiro[cyclopropane-1,3′-pyrrolo[3,2-c]pyridin]-6′-yl)acetamide]	≥ 1	0.01 to 0.1
CCc1cc(N2CC3(CC3)c3cnc(NC(N)=O)cc32)nc(C(C)(F)F)n1 [Example 309, 1-(1′-(2-(1,1-difluoroethyl)-6-ethylpyrimidin-4-yl)-1′,2′-dihydrospiro[cyclopropane-1,3′-pyrrolo[3,2-c]pyridin]-6′-yl)urea]	≤ 0.01	≤ 0.01
CC(=O)Nc1cc2c(cn1)C1(CC1)CN2c1cc(-c2cnn(C)c2F)nc(C(C)(F)F)n1 [Example 310, N-(1′-(2-(1,1-difluoroethyl)-6-(5-fluoro-1-methyl-1H-pyrazol-4-yl)pyrimidin-4-yl)-1′,2′-dihydrospiro[cyclopropane-1,3′-pyrrolo[3,2-c]pyridin]-6′-yl)acetamide]	0.01 to 0.1	≤ 0.01
CCc1cc(N2CC3(CC3)c3cnc(NC(=O)OC)cc32)nc(C(C)(F)F)n1 [Example 311, Methyl (1′-(2-(1,1-difluoroethyl)-6-ethylpyrimidin-4-yl)-1′,2′-dihydrospiro[cyclopropane-1,3′-pyrrolo[3,2-c]pyridin]-6′-yl)carbamate trifluoroacetate]	0.01 to 0.1	≤ 0.01
CC(=O)Nc1cc2c(cn1)C1(CC1)CN2c1cc(C)nc(C(C)(C)F)n1 [Example 312, N-(1′-(2-(2-fluoropropan-2-yl)-6-methylpyrimidin-4-yl)-1′,2′-dihydrospiro[cyclopropane-1,3′-pyrrolo[3,2-c]pyridin]-6′-yl)acetamide]	0.01 to 0.1	≤ 0.01
COc1cccc(N2CC3(CC3)c3cnc(NC(C)=O)cc32)n1 [Example 313, N-(1′-(6-methoxypyridin-2-yl)-1′,2′-dihydrospiro[cyclopropane-1,3′-pyrrolo[3,2-c]pyridin]-6′-yl)acetamide]	≥ 1	0.01 to 0.1
CCc1cc(N2CC3(CC3)c3cnc(NC(C)=O)cc32)nc(C)n1 [Example 314, N-(1′-(6-ethyl-2-methylpyrimidin-4-yl)-1′,2′-dihydrospiro[cyclopropane-1,3′-pyrrolo[3,2-c]pyridin]-6′-yl)acetamide]	≥ 1	0.01 to 0.1
COCC(F)(F)c1cc(C)cc(N2CC3(CC3)c3cnc(NC(C)=O)cc32)n1 [Example 315, N-(1′-(6-(1,1-difluoro-2-methoxyethyl)-4-methylpyridin-2-yl)-1′,2′-dihydrospiro[cyclopropane-1,3′-pyrrolo[3,2-c]pyridin]-6′-yl)acetamide trifluoroacetate]	≥ 1	0.01 to 0.1
CC(=O)Nc1cc2c(cn1)C1(CC1)CN2c1cc(C)cc(C(F)(F)CF)n1 [Example 316, N-(1′-(4-methyl-6-(1,1,2-trifluoroethyl)pyridin-2-yl)-1′,2′-dihydrospiro[cyclopropane-1,3′-pyrrolo[3,2-c]pyridin]-6′-yl)acetamide trifluoroacetate]	0.01 to 0.1	≤ 0.01
COC1CC(c2nc(C)cc(N3CC4(CC4)c4cnc(NC(C)=O)cc43)n2)C1 (stereo not shown) [Example 317, N-(1′-(2-(3-methoxycyclobutyl)-6-methylpyrimidin-4-yl)-1′,2′-dihydrospiro[cyclopropane-1,3′-pyrrolo[3,2-c]pyridin]-6′-yl)acetamide]	0.1 to 1	≤ 0.01
CC(=O)Nc1cc2c(cn1)C1(CC1)CN2c1cc(C)nc(C23COC(C)(C2)C3)n1 [Example 318, N-(1′-(6-methyl-2-(1-methyl-2-oxabicyclo[2.1.1]hexan-4-yl)pyrimidin-4-yl)-1′,2′-dihydrospiro[cyclopropane-1,3′-pyrrolo[3,2-c]pyridin]-6′-yl)acetamide]	≥ 1	0.01 to 0.1
CC(=O)Nc1cc2c(cn1)C1(CC1)CN2c1cc(C)nc(CCS(C)(=O)=O)n1 [Example 319, N-(1′-(6-methyl-2-(2-(methylsulfonyl)ethyl)pyrimidin-4-yl)-1′,2′-dihydrospiro[cyclopropane-1,3′-pyrrolo[3,2-c]pyridin]-6′-yl)acetamide]	≥ 1	0.01 to 0.1
CC(=O)Nc1cc2c(cn1)C1(CC1)CN2c1cc(C)nc(C23COC(C2)C3)n1 [Example 320, N-(1′-(2-(2-oxabicyclo[2.1.1]hexan-4-yl)-6-methylpyrimidin-4-yl)-1′,2′-dihydrospiro[cyclopropane-1,3′-pyrrolo[3,2-c]pyridin]-6′-yl)acetamide]	0.01 to 0.1	≤ 0.01
CCc1cc(N2CC3(CC3)c3cnc(NC(C)=O)cc32)nc(C2CCOC2)n1 (stereo not shown) [Example 321, N-(1′-(6-ethyl-2-(tetrahydrofuran-3-yl)pyrimidin-4-yl)-1′,2′-dihydrospiro[cyclopropane-1,3′-pyrrolo[3,2-c]pyridin]-6′-yl)acetamide trifluoroacetate]	0.01 to 0.1	≤ 0.01
COCC(F)(F)c1nccc(N2CC3(CC3)c3cnc(NC(C)=O)cc32)n1 [Example 323, N-(1′-(2-(1,1-difluoro-2-methoxyethyl)pyrimidin-4-yl)-1′,2′-dihydrospiro[cyclopropane-1,3′-pyrrolo[3,2-c]pyridin]-6′-yl)acetamide]	0.1 to 1	0.1 to 1
CCC(C)(O)CCc1cc(N2CC3(CC3)c3cnc(NC(C)=O)cc32)nc(C(C)(F)F)n1 (stereo not shown) [Example 324, N-(1′-(2-(1,1-difluoroethyl)-6-(3-hydroxy-3-methylpentyl)pyrimidin-4-yl)-1′,2′-dihydrospiro[cyclopropane-1,3′-pyrrolo[3,2-c]pyridin]-6′-yl)acetamide]	0.01 to 0.1	≤ 0.01
CC(=O)Nc1cc2c(cn1)C1(CC1)CN2c1cc(CCCOC(C)(C)C)nc(C(C)(F)F)n1 [Example 325, N-(1′-(6-(3-(tert-butoxy)propyl)-2-(1,1-difluoroethyl)pyrimidin-4-yl)-1′,2′-dihydrospiro[cyclopropane-1,3′-pyrrolo[3,2-c]pyridin]-6′-yl)acetamide]	0.01 to 0.1	≤ 0.01
COCCCc1cc(N2CC3(CC3)c3cnc(NC(C)=O)cc32)nc(C(C)(F)F)n1 [Example 326, N-(1′-(2-(1,1-difluoroethyl)-6-(3-methoxypropyl)pyrimidin-4-yl)-1′,2′-dihydrospiro[cyclopropane-1,3′-pyrrolo[3,2-c]pyridin]-6′-yl)acetamide]	0.01 to 0.1	≤ 0.01
CC(=O)Nc1cc2c(cn1)C1(CC1)CN2c1cc(CCC(C)(C)O)nc(C(C)(F)F)n1 [Example 327, N-(1′-(2-(1,1-difluoroethyl)-6-(3-hydroxy-3-methylbutyl)pyrimidin-4-yl)-1′,2′-dihydrospiro[cyclopropane-1,3′-pyrrolo[3,2-c]pyridin]-6′-yl)acetamide]	0.01 to 0.1	≤ 0.01
CCCCCc1cc(N2CC3(CC3)c3cnc(NC(C)=O)cc32)nc(C(C)(F)F)n1 [Example 328, N-(1′-(2-(1,1-difluoroethyl)-6-pentylpyrimidin-4-yl)-1′,2′-dihydrospiro[cyclopropane-1,3′-pyrrolo[3,2-c]pyridin]-6′-yl)acetamide]	0.01 to 0.1	≤ 0.01
